Molecular target: T1, D(4) dopamine receptor (Homo sapiens, UniProt P21917)
T1 sequence (P21917 whole entry): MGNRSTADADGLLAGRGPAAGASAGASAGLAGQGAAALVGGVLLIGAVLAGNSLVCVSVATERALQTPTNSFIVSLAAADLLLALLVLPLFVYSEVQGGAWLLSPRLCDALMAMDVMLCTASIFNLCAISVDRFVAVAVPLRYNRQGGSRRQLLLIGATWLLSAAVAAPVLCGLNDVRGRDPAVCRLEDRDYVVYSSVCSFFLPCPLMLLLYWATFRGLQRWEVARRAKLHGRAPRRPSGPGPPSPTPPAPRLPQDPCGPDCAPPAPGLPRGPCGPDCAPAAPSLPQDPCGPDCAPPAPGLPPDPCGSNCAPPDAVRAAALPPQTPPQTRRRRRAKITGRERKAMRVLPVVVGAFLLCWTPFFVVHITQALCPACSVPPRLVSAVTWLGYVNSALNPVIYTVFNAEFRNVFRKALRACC
Experiment: Displacement of [3H]N-methylspiperone from human D4 receptor expressed in HEK293 cell membrane by competitive inhibition based analysis
Type: cell membranes
Conditions: not given

Row | SMILES | IC50 | Ki
1 | Fc1cc(COC2CCN(Cc3cn4ccccc4n3)CC2)ccc1Cl | 135 nM | 134 nM
2 | FC(F)(F)c1cccc(COC2CCN(Cc3cc4ccc(Cl)cc4[nH]3)CC2)c1 | 209 nM | 211 nM
3 | Cc1c(Cl)cccc1NC(=O)CN1CCC(OCc2ccc(F)c(F)c2)CC1 | 302 nM | 299 nM
4 | Fc1ccc(COC2CCN(Cc3cc4ccc(Cl)cc4[nH]3)CC2)cc1F | 148 nM | 149 nM
5 | Fc1ccc(COC2CCN(Cc3cn4ccccc4n3)CC2)cc1F | 339 nM | 337 nM
6 | Fc1cc(COC2CCN(Cc3ccc4[nH]cnc4c3)CC2)ccc1Cl | 1510 nM | 1520 nM
7 | Fc1cc(COC2CCN(Cc3cc4ccc(Cl)cc4[nH]3)CC2)ccc1Cl | 324 nM | 323 nM

Molecular target: T2, D(1A) dopamine receptor (Homo sapiens, UniProt P21728)
Experiment: Displacement of [3H]-SCH23390 from human D1 receptor expressed in HEK293 cell membrane at 10 uM by competitive inhibition based analysis
Type: cell membranes
Conditions: not given

T2 sequence (P21728 whole entry): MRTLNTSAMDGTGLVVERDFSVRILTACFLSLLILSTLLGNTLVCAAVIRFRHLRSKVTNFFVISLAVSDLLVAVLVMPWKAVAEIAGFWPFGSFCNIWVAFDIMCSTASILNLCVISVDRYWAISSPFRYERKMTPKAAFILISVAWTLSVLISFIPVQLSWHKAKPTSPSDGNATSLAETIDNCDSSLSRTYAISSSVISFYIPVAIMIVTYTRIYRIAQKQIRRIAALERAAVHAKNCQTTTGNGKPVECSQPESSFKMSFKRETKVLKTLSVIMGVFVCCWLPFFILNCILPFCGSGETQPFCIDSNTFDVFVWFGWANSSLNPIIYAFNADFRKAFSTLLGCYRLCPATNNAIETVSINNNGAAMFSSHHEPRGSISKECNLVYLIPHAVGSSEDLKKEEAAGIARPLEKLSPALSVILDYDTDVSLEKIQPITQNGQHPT

Row | SMILES | inhibition
8 | Fc1cc(COC2CCN(Cc3cn4ccccc4n3)CC2)ccc1Cl | < 50%
9 | Cc1c(Cl)cccc1NC(=O)CN1CCC(OCc2ccc(F)c(F)c2)CC1 | < 50%
10 | Fc1ccc(COC2CCN(Cc3cc4ccc(Cl)cc4[nH]3)CC2)cc1F | < 50%
11 | Fc1ccc(COC2CCN(Cc3cn4ccccc4n3)CC2)cc1F | < 50%
12 | Fc1cc(COC2CCN(Cc3ccc4[nH]cnc4c3)CC2)ccc1Cl | < 50%
13 | Fc1cc(COC2CCN(Cc3cc4ccc(Cl)cc4[nH]3)CC2)ccc1Cl | < 50%

Same assay, conditions: filed as antagonist

Row | SMILES | inhibition
14 | FC(F)(F)c1cccc(COC2CCN(Cc3cc4ccc(Cl)cc4[nH]3)CC2)c1 | 55%

Tested on: not listed separately
Experiment: Drug uptake in rat brain at 0.25 mg/kg, iv measured on day 2 at 0.25 hrs post-dose
Type: ADME, organism-based
Conditions: time 2 day, read-out: Drug uptake

Row | SMILES | concentration at 48 h
15 | Fc1cc(COC2CCN(Cc3cn4ccccc4n3)CC2)ccc1Cl | 453 ng/g
16 | Cc1c(Cl)cccc1NC(=O)CN1CCC(OCc2ccc(F)c(F)c2)CC1 | 134 ng/g
17 | Fc1ccc(COC2CCN(Cc3cc4ccc(Cl)cc4[nH]3)CC2)cc1F | 562 ng/g
18 | Fc1ccc(COC2CCN(Cc3cn4ccccc4n3)CC2)cc1F | 232 ng/g
19 | Fc1cc(COC2CCN(Cc3ccc4[nH]cnc4c3)CC2)ccc1Cl | 139 ng/g

Tested on: not listed separately
Experiment: Initial plasma concentration in rat at 0.25 mg/kg, iv
Type: ADME, organism-based
Conditions: in vivo, iv, 0.25 mg/kg

Row | SMILES | C0
20 | Fc1cc(COC2CCN(Cc3cn4ccccc4n3)CC2)ccc1Cl | 52.2 ng/mL
21 | Cc1c(Cl)cccc1NC(=O)CN1CCC(OCc2ccc(F)c(F)c2)CC1 | 5.5 ng/mL
22 | Fc1ccc(COC2CCN(Cc3cn4ccccc4n3)CC2)cc1F | 49.4 ng/mL
23 | Fc1cc(COC2CCN(Cc3ccc4[nH]cnc4c3)CC2)ccc1Cl | 23.5 ng/mL

Same assay, conditions: plasma, read-out: C0

Row | SMILES | C0
24 | Fc1ccc(COC2CCN(Cc3cc4ccc(Cl)cc4[nH]3)CC2)cc1F | 12.6 ng/mL

Molecular target: T2, D(1A) dopamine receptor
Experiment: Displacement of [3H]-SCH23390 from human D1 receptor expressed in HEK293 cell membrane by competitive inhibition based analysis
Type: cell membranes
Conditions: not given

Row | SMILES | Ki
25 | FC(F)(F)c1cccc(COC2CCN(Cc3cc4ccc(Cl)cc4[nH]3)CC2)c1 | 1190 nM

Tested on: not listed separately
Experiment: Ratio of drug level in rat brain to plasma at 0.25 mg/kg, iv measured on day 2 at 0.25 hrs post-dose
Type: ADME, organism-based
Conditions: time 2 day, read-out: BPR

Row | SMILES | Kp at 48 h
26 | Fc1cc(COC2CCN(Cc3cn4ccccc4n3)CC2)ccc1Cl | 15.5
27 | Cc1c(Cl)cccc1NC(=O)CN1CCC(OCc2ccc(F)c(F)c2)CC1 | 2.9
28 | Fc1ccc(COC2CCN(Cc3cc4ccc(Cl)cc4[nH]3)CC2)cc1F | 28.9
29 | Fc1ccc(COC2CCN(Cc3cn4ccccc4n3)CC2)cc1F | 6.6
30 | Fc1cc(COC2CCN(Cc3ccc4[nH]cnc4c3)CC2)ccc1Cl | 9.9

Tested on: not listed separately
Experiment: Plasma concentration in rat at 0.25 mg/kg, iv measured on day 2 at 0.25 hrs post-dose
Type: ADME, organism-based
Conditions: time 2 day

Row | SMILES | concentration at 48 h
31 | Fc1cc(COC2CCN(Cc3cn4ccccc4n3)CC2)ccc1Cl | 29.9 ng/mL
32 | Cc1c(Cl)cccc1NC(=O)CN1CCC(OCc2ccc(F)c(F)c2)CC1 | 45.8 ng/mL
33 | Fc1ccc(COC2CCN(Cc3cc4ccc(Cl)cc4[nH]3)CC2)cc1F | 19.4 ng/mL
34 | Fc1ccc(COC2CCN(Cc3cn4ccccc4n3)CC2)cc1F | 34.9 ng/mL
35 | Fc1cc(COC2CCN(Cc3ccc4[nH]cnc4c3)CC2)ccc1Cl | 14.1 ng/mL

Tested on: not listed separately
Experiment: Protein binding in human plasma assessed as unbound fraction
Type: ADME, cell-free
Conditions: not given

Row | SMILES | Fu
36 | Fc1cc(COC2CCN(Cc3cn4ccccc4n3)CC2)ccc1Cl | 1.8%
37 | FC(F)(F)c1cccc(COC2CCN(Cc3cc4ccc(Cl)cc4[nH]3)CC2)c1 | 0.1%
38 | Cc1c(Cl)cccc1NC(=O)CN1CCC(OCc2ccc(F)c(F)c2)CC1 | 0.3%
39 | Fc1ccc(COC2CCN(Cc3cc4ccc(Cl)cc4[nH]3)CC2)cc1F | < 0.3%
40 | Fc1ccc(COC2CCN(Cc3cn4ccccc4n3)CC2)cc1F | 6.2%
41 | Fc1cc(COC2CCN(Cc3ccc4[nH]cnc4c3)CC2)ccc1Cl | 7.7%

Tested on: not listed separately
Experiment: Protein binding in mouse plasma assessed as unbound fraction
Type: ADME, cell-free
Conditions: not given

Row | SMILES | Fu
42 | Fc1cc(COC2CCN(Cc3cn4ccccc4n3)CC2)ccc1Cl | 22.4%
43 | FC(F)(F)c1cccc(COC2CCN(Cc3cc4ccc(Cl)cc4[nH]3)CC2)c1 | 0.1%
44 | Cc1c(Cl)cccc1NC(=O)CN1CCC(OCc2ccc(F)c(F)c2)CC1 | 1.5%
45 | Fc1ccc(COC2CCN(Cc3cc4ccc(Cl)cc4[nH]3)CC2)cc1F | 0.4%
46 | Fc1ccc(COC2CCN(Cc3cn4ccccc4n3)CC2)cc1F | 42.8%
47 | Fc1cc(COC2CCN(Cc3ccc4[nH]cnc4c3)CC2)ccc1Cl | 17.1%

Molecular target: T3, D(3) dopamine receptor (Homo sapiens, UniProt P35462)
Experiment: Displacement of [3H]N-methylspiperone from human D3 receptor expressed in HEK293 cell membrane by competitive inhibition based analysis
Type: cell membranes
Conditions: not given

T3 sequence (P35462 whole entry): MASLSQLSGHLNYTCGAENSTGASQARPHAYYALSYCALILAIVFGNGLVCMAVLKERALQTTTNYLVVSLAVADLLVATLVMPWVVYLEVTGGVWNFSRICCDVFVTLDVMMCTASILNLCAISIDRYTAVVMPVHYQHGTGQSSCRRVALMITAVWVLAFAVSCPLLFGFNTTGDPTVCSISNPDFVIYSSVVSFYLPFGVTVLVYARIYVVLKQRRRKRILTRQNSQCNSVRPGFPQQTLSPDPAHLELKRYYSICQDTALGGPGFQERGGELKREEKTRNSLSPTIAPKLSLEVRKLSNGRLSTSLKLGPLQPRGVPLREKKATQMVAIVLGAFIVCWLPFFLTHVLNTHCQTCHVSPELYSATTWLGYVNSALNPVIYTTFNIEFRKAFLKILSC

Row | SMILES | Ki
48 | Cc1c(Cl)cccc1NC(=O)CN1CCC(OCc2ccc(F)c(F)c2)CC1 | 2460 nM
49 | Fc1ccc(COC2CCN(Cc3cc4ccc(Cl)cc4[nH]3)CC2)cc1F | 965 nM
50 | Fc1cc(COC2CCN(Cc3cc4ccc(Cl)cc4[nH]3)CC2)ccc1Cl | 557 nM

Tested on: not listed separately
Experiment: Half-life in rat at 0.25 mg/kg, iv measured for 24 hrs
Type: ADME, organism-based
Conditions: in vivo

Row | SMILES | t1/2
51 | Fc1cc(COC2CCN(Cc3cn4ccccc4n3)CC2)ccc1Cl | 0.6 h
52 | Cc1c(Cl)cccc1NC(=O)CN1CCC(OCc2ccc(F)c(F)c2)CC1 | 4.4 h
53 | Fc1ccc(COC2CCN(Cc3cc4ccc(Cl)cc4[nH]3)CC2)cc1F | 1.8 h
54 | Fc1ccc(COC2CCN(Cc3cn4ccccc4n3)CC2)cc1F | 0.9 h
55 | Fc1cc(COC2CCN(Cc3ccc4[nH]cnc4c3)CC2)ccc1Cl | 1.1 h

Tested on: not listed separately
Experiment: AUC in rat at 0.25 mg/kg, iv measured for 24 hrs
Type: ADME, organism-based
Design: time 24 hrs, dose 0.25 mg/kg, route iv
Conditions: in vivo

Row | SMILES | AUC
56 | Fc1cc(COC2CCN(Cc3cn4ccccc4n3)CC2)ccc1Cl | 125 ng·h/mL
57 | Cc1c(Cl)cccc1NC(=O)CN1CCC(OCc2ccc(F)c(F)c2)CC1 | 747 ng·h/mL
58 | Fc1ccc(COC2CCN(Cc3cc4ccc(Cl)cc4[nH]3)CC2)cc1F | 126 ng·h/mL
59 | Fc1ccc(COC2CCN(Cc3cn4ccccc4n3)CC2)cc1F | 142 ng·h/mL
60 | Fc1cc(COC2CCN(Cc3ccc4[nH]cnc4c3)CC2)ccc1Cl | 79.9 ng·h/mL

Tested on: not listed separately
Experiment: Volume of distribution at steady state in rat at 0.25 mg/kg, iv measured for 24 hrs
Type: ADME, organism-based
Conditions: in vivo

Row | SMILES | Vdss
61 | Fc1cc(COC2CCN(Cc3cn4ccccc4n3)CC2)ccc1Cl | 5.1 L/kg
62 | Cc1c(Cl)cccc1NC(=O)CN1CCC(OCc2ccc(F)c(F)c2)CC1 | 5.5 L/kg
63 | Fc1ccc(COC2CCN(Cc3cn4ccccc4n3)CC2)cc1F | 6.4 L/kg
64 | Fc1cc(COC2CCN(Cc3ccc4[nH]cnc4c3)CC2)ccc1Cl | 13.6 L/kg

Molecular target: T4, D(1B) dopamine receptor (Homo sapiens, UniProt P21918)
Experiment: Displacement of [3H]-SCH23390 from human D5 receptor expressed in HEK293 cell membrane by competitive inhibition based analysis
Type: cell membranes
Conditions: not given

T4 sequence (P21918 whole entry): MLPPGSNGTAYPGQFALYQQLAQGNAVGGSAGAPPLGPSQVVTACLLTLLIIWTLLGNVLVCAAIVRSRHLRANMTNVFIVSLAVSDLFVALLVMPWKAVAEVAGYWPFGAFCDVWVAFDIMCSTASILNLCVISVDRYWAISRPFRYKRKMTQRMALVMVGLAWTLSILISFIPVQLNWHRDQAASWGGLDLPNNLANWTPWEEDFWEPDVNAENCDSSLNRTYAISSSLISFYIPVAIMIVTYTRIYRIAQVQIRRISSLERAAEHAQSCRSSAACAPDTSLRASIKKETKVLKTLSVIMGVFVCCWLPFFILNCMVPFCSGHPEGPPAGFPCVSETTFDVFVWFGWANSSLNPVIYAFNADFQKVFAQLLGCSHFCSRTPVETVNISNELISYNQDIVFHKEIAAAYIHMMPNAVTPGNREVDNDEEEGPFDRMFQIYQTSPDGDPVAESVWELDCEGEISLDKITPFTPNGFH

Row | SMILES | Ki
65 | Fc1cc(COC2CCN(Cc3cn4ccccc4n3)CC2)ccc1Cl | > 10000 nM
66 | Fc1ccc(COC2CCN(Cc3cc4ccc(Cl)cc4[nH]3)CC2)cc1F | 3990 nM

Molecular target: T3, D(3) dopamine receptor
Experiment: Displacement of [3H]N-methylspiperone from human D3 receptor expressed in HEK293 cell membrane at 10 uM by competitive inhibition based analysis
Type: cell membranes
Conditions: not given

Row | SMILES | inhibition
67 | Fc1cc(COC2CCN(Cc3cn4ccccc4n3)CC2)ccc1Cl | < 50%
68 | FC(F)(F)c1cccc(COC2CCN(Cc3cc4ccc(Cl)cc4[nH]3)CC2)c1 | < 50%
69 | Fc1ccc(COC2CCN(Cc3cn4ccccc4n3)CC2)cc1F | < 50%
70 | Fc1cc(COC2CCN(Cc3ccc4[nH]cnc4c3)CC2)ccc1Cl | < 50%

Same assay, conditions: filed as antagonist

Row | SMILES | inhibition
71 | Cc1c(Cl)cccc1NC(=O)CN1CCC(OCc2ccc(F)c(F)c2)CC1 | 67%
72 | Fc1ccc(COC2CCN(Cc3cc4ccc(Cl)cc4[nH]3)CC2)cc1F | 73%
73 | Fc1cc(COC2CCN(Cc3cc4ccc(Cl)cc4[nH]3)CC2)ccc1Cl | 76%

Molecular target: T4, D(1B) dopamine receptor
Experiment: Displacement of [3H]-SCH23390 from human D5 receptor expressed in HEK293 cell membrane at 10 uM by competitive inhibition based analysis
Type: cell membranes
Conditions: not given

Row | SMILES | inhibition
74 | FC(F)(F)c1cccc(COC2CCN(Cc3cc4ccc(Cl)cc4[nH]3)CC2)c1 | < 50%
75 | Cc1c(Cl)cccc1NC(=O)CN1CCC(OCc2ccc(F)c(F)c2)CC1 | < 50%
76 | Fc1ccc(COC2CCN(Cc3cn4ccccc4n3)CC2)cc1F | < 50%
77 | Fc1cc(COC2CCN(Cc3ccc4[nH]cnc4c3)CC2)ccc1Cl | < 50%

Same assay, conditions: filed as antagonist

Row | SMILES | inhibition
78 | Fc1cc(COC2CCN(Cc3cn4ccccc4n3)CC2)ccc1Cl | 57%
79 | Fc1ccc(COC2CCN(Cc3cc4ccc(Cl)cc4[nH]3)CC2)cc1F | 64%
80 | Fc1cc(COC2CCN(Cc3cc4ccc(Cl)cc4[nH]3)CC2)ccc1Cl | 65%

Molecular target: D(2) dopamine receptor (Homo sapiens) (UniProt P14416)
Experiment: Displacement of [3H]N-methylspiperone from human D2 receptor expressed in HEK293 cell membrane at 10 uM by competitive inhibition based analysis
Type: cell membranes
Conditions: not given

Chain of D(2) dopamine receptor (Homo sapiens) (P14416 whole entry): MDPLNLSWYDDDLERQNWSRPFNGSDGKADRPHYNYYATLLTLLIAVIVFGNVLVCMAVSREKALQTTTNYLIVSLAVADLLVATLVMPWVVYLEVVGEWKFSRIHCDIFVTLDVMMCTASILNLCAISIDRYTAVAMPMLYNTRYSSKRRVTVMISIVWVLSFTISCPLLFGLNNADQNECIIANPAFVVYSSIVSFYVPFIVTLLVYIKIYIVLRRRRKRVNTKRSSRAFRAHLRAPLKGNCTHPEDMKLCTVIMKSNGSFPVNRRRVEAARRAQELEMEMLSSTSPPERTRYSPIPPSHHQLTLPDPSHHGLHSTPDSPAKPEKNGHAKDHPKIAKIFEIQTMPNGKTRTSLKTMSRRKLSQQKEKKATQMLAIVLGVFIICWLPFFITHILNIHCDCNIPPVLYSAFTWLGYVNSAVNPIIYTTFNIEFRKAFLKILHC

Row | SMILES | inhibition
81 | Fc1cc(COC2CCN(Cc3cn4ccccc4n3)CC2)ccc1Cl | < 50%
82 | FC(F)(F)c1cccc(COC2CCN(Cc3cc4ccc(Cl)cc4[nH]3)CC2)c1 | < 50%
83 | Cc1c(Cl)cccc1NC(=O)CN1CCC(OCc2ccc(F)c(F)c2)CC1 | < 50%
84 | Fc1ccc(COC2CCN(Cc3cc4ccc(Cl)cc4[nH]3)CC2)cc1F | < 50%
85 | Fc1ccc(COC2CCN(Cc3cn4ccccc4n3)CC2)cc1F | < 50%
86 | Fc1cc(COC2CCN(Cc3ccc4[nH]cnc4c3)CC2)ccc1Cl | < 50%
87 | Fc1cc(COC2CCN(Cc3cc4ccc(Cl)cc4[nH]3)CC2)ccc1Cl | < 50%

— ChEMBL document CHEMBL5143585, “Discovery and characterization of benzyloxy piperidine based dopamine 4 receptor antagonists” (Bioorg Med Chem Lett, 2022)
